Experimental findings from patent US20230158071A1, “TUMOR COMBINED IMMUNOTHERAPY” (CRAGE medical Co., Limited, priority 2018, published 2023) are described below.

Assay type in all cases: cell-based, mouse
The subject of assay [1] is E0771-EGFRvIII cells. Kind of assay: LDH cytotoxicity assay, CAR-T killing of olaparib-treated E0771-EGFRvIII cells. The method, then:
(§1) The experimental groups for incubating with cells that are positive for the antigen target comprises the following 4 groups: UTD group, 806-mCD28z-CAR-T group (or denoted as 806-28Z), olaparib pretreatment group, and olaparib combined treatment group;
(§2) the olaparib pretreatment group comprises: UTD+1 μM olaparib pretreatment group (or denoted as UTD+Olaparib 1 μM pretreatment), UTD+5 μM olaparib pretreatment group (or denoted as UTD+Olaparib 5 μM pretreatment), 806-mCD28z-CAR-T+1 μM olaparib pretreatment group (or denoted as 806-28Z+Olaparib 1 μM pretreatment). 806-mCD28z-CAR-T+5 μM olaparib pretreatment group (or denoted as 806-28Z+Olaparib 5 μM pretreatment); […]
(§3) Olaparib pretreatment group: different concentrations of olaparib (1 μM, 5 μM) are added to the medium for culturing E0771-EGFRVIII or 4T1-EGFRvIII tumor cells respectively, culturing at 37° C. for 24 h, and then the cells are treated with trypsin and resuspended in fresh medium. The untreated mouse T cells and 806-mCD28z-CAR T cells in Example 1 are respectively taken to incubate with E0771-EGFRvIII or 4T1-EGFRVIII cells pretreated with different concentrations of olaparib at a ratio of 1:3, 1:1, and 3:1; 16 hours later, the secretion of LDH in the supernatant is detected by Cytox 96 Non-Radioactive Cytotoxicity Assay, then calculating the killing toxicity of 806-mCD28z CAR T cells to tumor cells pretreated with different concentrations of olaparib. […] Cytox 96 Non-Radioactive Cytotoxicity Assay (Promaga, REF: G1782); at the same time, the secretions of cytokines Granzyme B, IFN-γ, and IL-2 in the supernatant are detected by ELISA kit (Lianke Biotech Co. Ltd. CAT: 18^.22), for specific experimental procedures, referring to instructions of MouseGranzyme B, IFN-γ, IL-2 ELISA kit from Lianke Biotech Co, Ltd. […]

For assay [2], the system named is 806-mCD28z-CAR-T cells. As to the kind of experiment: Flow cytometry (CellTrace) of CAR-T proliferation in co-culture with breast cancer cells. The settings on record: co-incubation 1:1, 16 hours. The method, then: The experimental groups are as follows: 806-mCD28z-CAR-T group (or denoted as 806-28Z), olaparib pretreatment group, and olaparib combined treatment group;
The olaparib pretreatment group comprises: 806-mCD28z-CAR-T+1 μM olaparib pretreatment group (or denoted as 806-28Z+Olaparib 1 μM pretreatment), 806-mCD28z-CAR-T+5 μM olaparib pretreatment group (or denoted as 806-28Z+Olaparib 5 μM pretreatment);
Olaparib combined treatment group comprises: 806-mCD28z-CAR-T+1 μM olaparib combined treatment group (or denoted as 806-28Z+Olaparib 1 μM), 806-mCD28z-CAR-T+5 μM olaparib combined treatment group (or denoted as 806-28Z+Olaparib 5 μM).
Before the co-incubation experiment, 806-mCD28z-CAR-T cells need to be stained with CellTrace dye. […]
Olaparib pretreatment group: different concentrations of olaparib (1 μM, 5 μM) are respectively added to a medium for culturing E0771-EGFRvIII or 4T1-EGFRvIII tumor cells, after culturing at 37° C. for 24 hours, the cells are treated with trypsin and resuspended in fresh medium. 806-mCD28z-CAR T cells in Example 1 are taken to co-incubate with E0771-EGFRVIII or 4T1-EGFRvIII cells pretreated with different concentrations of olaparib at a ratio of 1:1; 16 hours later, the proliferation of CAR-T cells and the expression levels of the T cell exhaustion-related proteins PD1, LAG3 and TIM3 on the surface of CAR-T cells are detected by flow cytometry. […]
On the technique in general: Flow cytometry measures light scatter and fluorescence of single cells or particles in a stream.

The subject of assay [3] is 4T1-EGFRvIII cells. Kind of assay: LDH cytotoxicity assay, CAR-T killing of olaparib-treated 4T1-EGFRvIII cells. The method, then:
as §1, §2, §3

Where [4] appears, read: 5 μM olaparib combined treatment group.
The mark [5] stands for this setting: 5 μM olaparib pretreatment group, better than 5 μM combined treatment group.
The mark [6] stands for this setting: olaparib 1 μM or 5 μM, pretreatment or combined treatment, vs CAR-T alone, ratio 1:3, 1:1, 3:1, 16 hours, LDH.

On to `O=C(c1cc(Cc2n[nH]c(=O)c3ccccc23)ccc1F)N1CCN(C(=O)C2CC2)CC1` [olaparib], for which, in assay [1] (setting [4]), the “lethal effect on E0771-EGFRvIII cells compared with the CAR-T single treatment group” value was “higher synergistic lethal effect”. Moreover, the “promotion of the killing effect of CAR-T cells on E0771-EGFRvIII cells” value in assay [1] (setting [5]) is recorded as “most significant”. Also, in assay [1] (setting [6]), the “killing effect of CAR-T cells on E0771-EGFRvIII cells” value is reported as “significantly improved”. Besides, the “proliferation of CART cells” value is recorded as “slightly inhibited” in assay [2] (olaparib combined treatment group (1 μM, 5 μM), not statistically significant) and “not significantly affected” in assay [2] (olaparib pretreatment group (1 μM, 5 μM)). Further, in assay [3] (setting [4]), the “lethal effect on 4T1-EGFRvIII cells compared with the CAR-T single treatment group” value is “higher synergistic lethal effect”. In assay [3] (setting [5]), the “promotion of the killing effect of CAR-T cells on 4T1-EGFRvIII cells” value is recorded as “most significant”. In addition, in assay [3] (setting [6]), the “killing effect of CAR-T cells on 4T1-EGFRvIII cells” value is “significantly improved”.
